Like-named read-outs stand apart in the source and are kept apart here.
Experiments:
[1] = test system: RCC; test: prior regimens of the RCC responders; type: in vivo, human; conditions: prior regimens of person RCC responder
[2] = test system: patients with RCC; conditions: nivolumab monotherapy after previous ICI therapy, retrospective, cited from earlier work
[3] = test system: patients with PD-L1 combined positive score ≤1; set-up: method as in PMID 32359091, PMID 32352498, PMID 35611499, PMID 34907910; conditions: CCA, KEYNOTE-158; cited from earlier work

COc1cc2nccc(Oc3ccc(NC(=O)C4(C(=O)Nc5ccc(F)cc5)CC4)cc3)c2cc1OC [Cabozantinib]
Duration [1]: 6.3 mo

nivolumab: PD-1 inhibitor
ORR ([2]; ref 33): 16% | ORR ([2]; ref 34): 23%

CO[C@H]1C[C@@H]2CC[C@@H](C)[C@@](O)(O2)C(=O)C(=O)N2CCCC[C@H]2C(=O)O[C@H]([C@H](C)C[C@@H]2CC[C@@H](OCCO)[C@H](OC)C2)CC(=O)[C@H](C)/C=C(\C)[C@@H](O)[C@@H](OC)C(=O)[C@H](C)C[C@H](C)/C=C/C=C/C=C/1C [Everolimus]
Duration [1]: 6.1 mo

pembrolizumab: ICI monotherapy in the KEYNOTE-158 trial
ORR [3]: 2.9%

— PMC11025498, “First-in-human Phase I Trial of TPST-1120, an Inhibitor of PPARα, as Monotherapy or in Combination with Nivolumab, in Patients with Advanced Solid Tumors” (Cancer Research Communications, 2024)
